The values that follow come from US12662491B2 (Redona Therapeutics, Inc., priority 2020, dated 2026).

The first assay concerns the target T1, Zcchc11 enzyme (Homo sapiens, UniProt Q5TAX3).
T1 construct: made in house; host or cells: HEK293 cells (Zcchc11); E. coli Rosetta II (LIN28A)
T1 sequence (Q5TAX3 212-1420): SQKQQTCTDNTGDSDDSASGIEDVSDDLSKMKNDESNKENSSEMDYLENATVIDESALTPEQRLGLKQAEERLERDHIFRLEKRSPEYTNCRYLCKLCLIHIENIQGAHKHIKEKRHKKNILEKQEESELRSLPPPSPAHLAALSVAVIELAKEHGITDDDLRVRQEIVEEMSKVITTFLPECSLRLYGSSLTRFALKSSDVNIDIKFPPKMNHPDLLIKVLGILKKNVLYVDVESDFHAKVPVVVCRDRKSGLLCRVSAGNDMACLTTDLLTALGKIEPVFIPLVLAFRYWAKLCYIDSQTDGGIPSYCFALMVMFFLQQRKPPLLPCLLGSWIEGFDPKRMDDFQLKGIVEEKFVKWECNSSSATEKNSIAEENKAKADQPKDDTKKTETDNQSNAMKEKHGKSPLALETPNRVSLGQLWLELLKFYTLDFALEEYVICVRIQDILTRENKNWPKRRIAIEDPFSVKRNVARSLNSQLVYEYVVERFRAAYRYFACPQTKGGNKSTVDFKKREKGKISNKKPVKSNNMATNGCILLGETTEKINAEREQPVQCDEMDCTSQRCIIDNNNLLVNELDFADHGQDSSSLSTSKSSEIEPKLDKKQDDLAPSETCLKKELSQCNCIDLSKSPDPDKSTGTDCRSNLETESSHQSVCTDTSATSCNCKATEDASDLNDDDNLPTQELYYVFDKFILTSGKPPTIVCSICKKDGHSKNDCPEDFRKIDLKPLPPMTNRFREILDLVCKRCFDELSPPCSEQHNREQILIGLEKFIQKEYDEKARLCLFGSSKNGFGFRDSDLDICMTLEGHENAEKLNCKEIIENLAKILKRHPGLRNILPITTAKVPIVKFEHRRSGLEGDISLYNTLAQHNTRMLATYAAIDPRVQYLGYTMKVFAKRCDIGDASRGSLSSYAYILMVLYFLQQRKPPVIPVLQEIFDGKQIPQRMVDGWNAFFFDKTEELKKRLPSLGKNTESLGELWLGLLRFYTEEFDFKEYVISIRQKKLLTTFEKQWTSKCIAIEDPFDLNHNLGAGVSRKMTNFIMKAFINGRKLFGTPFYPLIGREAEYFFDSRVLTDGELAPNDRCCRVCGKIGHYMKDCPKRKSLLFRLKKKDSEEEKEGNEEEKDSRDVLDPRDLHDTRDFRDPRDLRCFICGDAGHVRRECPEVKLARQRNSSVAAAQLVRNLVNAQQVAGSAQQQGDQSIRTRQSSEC
The assay is described as follows: TUTase assay (Zcchc11 assay, Lin28a-dependent polyuridylation of pre-let-7). The format is biochemical. The settings on record: LIN28A 10 nM, Zcchc11 0.2 nM, 5′-fluorescein pre-let-7 miRNA 2 nM, UTP 5 uM, room temperature, 30 minutes pre-incubation; read-out: Potency Lin28a-dep Z11 IC50. The gist of the method: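 Readout: time-dependent quench of 5′-fluorescein pre-let-7 (2 nM) as 3′-rhodamine A20 probe anneals to poly(U) tails. Enzyme 0.2 nM Zcchc11 (res. 212-1420), LIN28A 10 nM, UTP 5 uM; pH 7.3 HEPES, 150 mM KCl, 5 mM MgCl2, RT. 4-parameter IC50; 100% = DMSO, 0% = no UTP.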
By IC50 is commonly meant the concentration needed to halve the response being measured. Turning to `COCC1CC(n2cc(C(=O)O)c(=O)c3cc(F)c(N4CCC[C@@H]4COc4ccccn4)cc32)C1` (stereo partly drawn) [Example 25, 6-fluoro-1-[3-(methoxymethyl)cyclobutyl]-4-oxo-7-[(2R)-2-[(pyridin-2-yloxy)methyl]pyrrolidin-1-yl]-1,4-dihydroquinoline-3-carboxylic acid], the IC50 fell in the range of 10000 to 50000 nM.

Turning to `CN(C)C1CN(c2ccc(-n3cc(C(=O)O)c(=O)c4cc(F)c(N5C[C@@H](c6cccnc6)C[C@@H]5COc5ncccc5Cl)cc43)cn2)C1` [Example 62, 7-[(2R,4R)-2-[[(3-chloropyridin-2-yl)oxy]methyl]-4-(pyridin-3-yl)pyrrolidin-1-yl]-1-[6-[3-(dimethylamino)azetidin-1-yl]pyridin-3-yl]-6-fluoro-4-oxoquinoline-3-carboxylic acid], the half-inhibitory concentration (IC50) is at most 1000 nM.

On to `O=C(O)c1cn(-c2cnc3c(n2)COC3)c2cc(N3CCC[C@@H]3COc3ncccc3Cl)c(Cl)cc2c1=O` [Example 46, 6-chloro-7-[(2R)-2-[[(3-chloropyridin-2-yl)oxy]methyl]pyrrolidin-1-yl]-1-[5H,7H-furo[3,4-b]pyrazin-2-yl]-4-oxoquinoline-3-carboxylic acid], for which the IC50 was at most 1000 nM.

The same assay, now with this note: Lin28a-dependent Zcchc11 (Z11) TUTase activity; read-out: Potency Lin28a-dep Z11 IC50.
On to `O=C(O)c1cn(-c2ccc3c(c2F)CCN3)c2cc(N3CCC[C@@H]3COc3ccccn3)c(F)cc2c1=O` [Compound 216, 6-Fluoro-1-(4-fluoro-2,3-dihydro-1H-indol-5-yl)-4-oxo-7-[(2R)-2-[(pyridin-2-yloxy)methyl]pyrrolidin-1-yl]quinoline-3-carboxylic acid], for which the IC50 was at most 1000 nM.

`Cn1cc(Cn2cc(C(=O)O)c(=O)c3cc(Cl)c(N4CCC[C@@H]4COc4ncccc4Cl)cc32)cn1` [Compound 252, 6-chloro-7-[(2R)-2-[[(3-chloropyridin-2-yl)oxy]methyl]pyrrolidin-1-yl]-1-[(1-methyl-pyrazol-4-yl)methyl]-4-oxoquinoline-3-carboxylic acid]: the IC50 was at most 1000 nM.

For `CN(C)C1CN(c2ccc(-n3cc(C(=O)O)c(=O)c4cc(F)c(N5[C@@H](COc6nc7c(ccn7C)cc6Cl)C[C@H]6C[C@H]65)cc43)cn2)C1` [Compound 337, 7-[(1R,3R,5R)-3-[{{5-Chloro-1-methyl-pyrrolo[2,3-b]pyridin-6-yl}oxy)methyl]-2-azabicyclo [3.1.0]hexan-2-yl]-1-{6-[3-(dimethyl-amino)azetidin-1-yl]pyridin-3-yl}-6-fluoro-4-oxoquinoline-3-carboxylic acid], the IC50 was at most 1000 nM.

Regarding `CN(C)C1CN(c2ccc(-n3cc(C(=O)O)c(=O)c4cc(C#N)c(N5C(=O)CC[C@@H]5COc5ncccc5Cl)cc43)cn2)C1` [Compound 220, 7-[(2R)-2-[[(3-chloropyridin-2-yl)oxy]methyl]-5-oxopyrrolidin-1-yl]-6-cyano-1-[6-[3-(dimethyl-amino)azetidin-1-yl]pyridin-3-yl]-4-oxoquinoline-3-carboxylic acid], the IC50 is 10000 to 50000 nM.

Regarding `COc1ccnc(OC[C@H]2C[C@H]3C[C@H]3N2c2cc3c(cc2F)c(=O)c(C(=O)O)cn3-c2ccc(N(C)C)nc2)c1F` [Compound 197, 1-(6-(dimethyl-amino)pyridin-3-yl)-6-fluoro-7-((1R,3R,5R)-3-(((3-fluoro-4-methoxy-pyridin-2-yl)oxy)methyl)-2-azabicyclo [3.1.0]hexan-2-yl)-4-oxo-1,4-dihydro-quinoline-3-carboxylic acid], the IC50 was at most 1000 nM.

The assay is the same for the next values; noted with them: Lin28a-dependent Zcchc11 (Z11) TUTase assay; read-out: Potency Lin28a-dep Z11 IC50.
Consider `Cc1cccnc1OC[C@H]1CCCN1c1cc2c(cc1F)c(=O)c(C(=O)O)cn2-c1ccc(NS(C)(=O)=O)cc1` [Example 412, (R)-6-fluoro-7-(2-(((3-methylpyridin-2-yl)oxy)methyl)pyrrolidin-1-yl)-1-(4-(methyl-sulfonamido)phenyl)-4-oxo-1,4-dihydroquinoline-3-carboxylic acid], for which the IC50 was at most 1000 nM.

Regarding `COc1ccc(Cl)c(OC[C@H]2C[C@H]3C[C@H]3N2c2nc3c(cc2Cl)c(=O)c(C(=O)O)cn3-c2ccc(N3CC(N(C)C)C3)nc2)n1` [Example 677, 6-chloro-7-((1R,3R,5R)-3-(((3-chloro-6-methoxypyridin-2-yl)oxy)methyl)-2-azabicyclo[3.1.0]hexan-2-yl)-1-(6-(3-(dimethylamino)azetidin-1-yl)pyridin-3-yl)-4-oxo-1,4-dihydro-1,8-naphthyridine-3-carboxylic aci], the IC50 is at most 1000 nM.

Regarding `CN1CCC(n2cc(C(=O)O)c(=O)c3cc(Cl)c(N4CCC[C@@H]4COc4ncccc4Cl)cc32)C1` (stereo partly drawn) [Example 461, 6-chloro-7-((R)-2-(((3-chloropyridin-2-yl)oxy)methyl)pyrrolidin-1-yl)-1-(1-methyl-pyrrolidin-3-yl)-4-oxo-1,4-dihydroquinoline-3-carboxylic acid], the IC50 was 1000 to 10000 nM.

As to `CN(C)C1CN(c2ccc(-n3cc(C(=O)O)c(=O)c4cc(Cl)c(N5CCC[C@@H]5COC5CCOCC5)cc43)cn2)C1` [Example 595, (R)-6-chloro-1-(6-(3-(dimethylamino)azetidin-1-yl)pyridin-3-yl)-4-oxo-7-(2-(((tetrahydro-2H-pyran-4-yl)oxy)methyl)pyrrolidin-1-yl)-1,4-dihydroquinoline-3-carboxylic acid], the IC50 was in the range of 1000 to 10000 nM.

With `COc1ccnc(OC[C@@H]2CCCN2c2cc3c(cc2Cl)c(=O)c(C(=O)O)cn3-c2ccc(N3CC(N(C)C)C3)nc2)c1Cl` [Example 668, (S)-6-chloro-7-(2-(((3-chloro-4-methoxypyridin-2-yl)oxy)methyl)pyrrolidin-1-yl)-1-(6-(3-(dimethylamino)azetidin-1-yl)pyridin-3-yl)-4-oxo-1,4-dihydroquinoline-3-carboxylic acid], the IC50 is at most 1000 nM.

Take `Nc1ccc(Cn2cc(C(=O)O)c(=O)c3cc(Cl)c(N4CCC[C@@H]4COc4ncccc4Cl)cc32)cn1` [Example 585, (R)-1-((6-aminopyridin-3-yl)methyl)-6-chloro-7-(2-(((3-chloropyridin-2-yl)oxy)methyl)pyrrolidin-1-yl)-4-oxo-1,4-dihydroquinoline-3-carboxylic acid]: the IC50 fell in the range of 1000 to 10000 nM.

For the compound `Cc1cccnc1OC[C@H]1CCCN1c1cc2c(cc1Cl)c(=O)c(C(=O)O)cn2C1CNC1` [Example 366, 1-(Azetidin-3-yl)-6-chloro-7-[(2R)-2-{[(3-methyl-pyridin-2-yl)oxy]methyl}pyrrolidin-1-yl]-4-oxo-1,4-dihydroquinoline-3-carboxylic acid], the IC50 fell in the range of 1000 to 10000 nM.

As for `CN(C)C1CN(c2ccc(-n3cc(C(=O)O)c(=O)c4cc(Cl)c(N5CCC[C@@H]5CCOc5ccccn5)cc43)cn2)C1` [Example 591, (R)-6-chloro-1-(6-(3-(dimethylamino)azetidin-1-yl)pyridin-3-yl)-4-oxo-7-(2-(2-(pyridin-2-yloxy)ethyl)pyrrolidin-1-yl)-1,4-dihydroquinoline-3-carboxylic acid], the IC50 was at most 1000 nM.

With `O=C(O)c1cn(-c2ccc(F)c(O)c2)c2cc(N3CCC[C@@H]3COc3ccccn3)c(F)cc2c1=O` [Example 534, (R)-6-fluoro-1-(4-fluoro-3-hydroxyphenyl)-4-oxo-7-(2-((pyridin-2-yloxy)methyl)pyrrolidin-1-yl)-1,4-dihydroquinoline-3-carboxylic acid], the IC50 is at most 1000 nM.

Take `O=C(O)c1cn(-c2ccc3[nH]cnc3c2)c2cc(N3CCC[C@@H]3COc3ccccn3)c(F)cc2c1=O` [Example 440, (R)-1-(1H-benzo[d]imidazol-5-yl)-6-fluoro-4-oxo-7-(2-((pyridin-2-yloxy)methyl)pyrrolidin-1-yl)-1,4-dihydroquinoline-3-carboxylic acid]: the IC50 is at most 1000 nM.
